Experimental data: US11793849B2, “Method of Chinese herbal medicine extract used for treating multiple diseases caused by drug resistant bacteria infection” (priority 2016, dated 2023)
Values after ≈ are worked out from the molar mass of the structure shown. Like-named read-outs stand apart in the source and are kept apart here.

Test system: MDRPA
Assay: MIC determination, microdilution broth method;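 further: broth microdilution per NCCLS recommendations, testing Pithecellobium clypearia water or ethanol extracts against multidrug-resistant Pseudomonas aeruginosa, with MIC50 and MIC90 derived statistically from individual MICs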
[1] = 20 MDRPAs, EA = 60% ethanol extract
[2] = 20 MDRPAs, EA = 95% ethanol extract
[3] = MDRPAs P1-P20, single use, EA=P. clypearia 10% ethanol extract
[4] = MDRPAs P1-P20, single use, EA=P. clypearia water extract
[5] = single use, 20 MDRPAs, section of the 10% ethanol extract
[6] = single use, 20 MDRPAs, section of the 60% ethanol extract
[7] = single use, 20 MDRPAs, section of the 95% ethanol extract

Method: Determination methods of a Minimal Inhibitory Concentration (MIC) and a Minimum Bactericidal Concentration (MBC) of a test product: the MIC and the MBC of the Pithecellobium clypearia Benth water or ethanol extract to the MDRAB are determined by a microdilution broth method. And it is operated by referring to the microdilution broth method recommended by National Committee for Clinical Laboratory Standards (NCCLS).
By determining the MIC and the MBC of the drug and making statistics of the data to obtain MIC50, MIC90, MBC50 and MBC90, the effect of the MDRA resistance of the drug is evaluated.
Test method: the MDRPA (serial No.: P1-P20) strains are tested and are evaluated with reference to the method in the first embodiment.

CC(C)(O/N=C(\C(=O)N[C@@H]1C(=O)N2C(C(=O)[O-])=C(C[n+]3ccccc3)CS[C@H]12)c1csc(N)n1)C(=O)O [CAZ, Ceftazidime]
MIC50 [1]: 32 µg/mL (≈ 58.5 µM) | MIC90 [1]: 256 µg/mL (≈ 468 µM) | MIC Range [1]: 2 to 512 µg/mL | MIC50 [2]: 32 µg/mL (≈ 58.5 µM) | MIC90 [2]: 256 µg/mL (≈ 468 µM) | MIC Range [2]: 2 to 512 µg/mL | MIC50 [3]: 32 µg/mL (≈ 58.5 µM) | MIC90 [3]: 256 µg/mL (≈ 468 µM) | MIC Range [3]: 2 to 512 µg/mL | MIC50 [4]: 32 µg/mL (≈ 58.5 µM) | MIC90 [4]: 256 µg/mL (≈ 468 µM) | MIC Range [4]: 2 to 512 µg/mL | MIC50 (Pseudomonas aeruginosa): 32 µg/mL (≈ 58.5 µM) | MIC90 (Pseudomonas aeruginosa): 256 µg/mL (≈ 468 µM) | MIC (Pseudomonas aeruginosa, read-out: MIC (single use), strain P1, EA=P. clypearia 10% ethanol extract): 32 µg/mL (≈ 58.5 µM) | MIC (Pseudomonas aeruginosa, read-out: MIC (single use), strain P1, EA=P. clypearia water extract): 32 µg/mL (≈ 58.5 µM) | MIC (Pseudomonas aeruginosa, read-out: MIC (single use), strain P2, EA=P. clypearia 10% ethanol extract): 64 µg/mL (≈ 117 µM) | MIC (Pseudomonas aeruginosa, read-out: MIC (single use), strain P2, EA=P. clypearia water extract): 64 µg/mL (≈ 117 µM) | MIC (Pseudomonas aeruginosa, read-out: MIC (single use), strain P3, EA=P. clypearia 10% ethanol extract): 4 µg/mL (≈ 7.32 µM) | MIC (Pseudomonas aeruginosa, read-out: MIC (single use), strain P3, EA=P. clypearia water extract): 4 µg/mL (≈ 7.32 µM) | MIC (Pseudomonas aeruginosa, read-out: MIC (single use), strain P4, EA=P. clypearia 10% ethanol extract): 256 µg/mL (≈ 468 µM) | MIC (Pseudomonas aeruginosa, read-out: MIC (single use), strain P4, EA=P. clypearia water extract): 256 µg/mL (≈ 468 µM) | MIC (Pseudomonas aeruginosa, read-out: MIC (single use), strain P5, EA=P. clypearia 10% ethanol extract): 64 µg/mL (≈ 117 µM) | MIC (Pseudomonas aeruginosa, read-out: MIC (single use), strain P5, EA=P. clypearia water extract): 64 µg/mL (≈ 117 µM) | MIC (Pseudomonas aeruginosa, read-out: MIC (single use), strain P6, EA=P. clypearia 10% ethanol extract): 512 µg/mL (≈ 937 µM) | MIC (Pseudomonas aeruginosa, read-out: MIC (single use), strain P6, EA=P. clypearia water extract): 512 µg/mL (≈ 937 µM) | MIC (Pseudomonas aeruginosa, read-out: MIC (single use), strain P7, EA=P. clypearia 10% ethanol extract): 64 µg/mL (≈ 117 µM) | MIC (Pseudomonas aeruginosa, read-out: MIC (single use), strain P7, EA=P. clypearia water extract): 64 µg/mL (≈ 117 µM) | MIC (Pseudomonas aeruginosa, read-out: MIC (single use), strain P8, EA=P. clypearia 10% ethanol extract): 256 µg/mL (≈ 468 µM) | MIC (Pseudomonas aeruginosa, read-out: MIC (single use), strain P8, EA=P. clypearia water extract): 256 µg/mL (≈ 468 µM) | MIC (Pseudomonas aeruginosa, read-out: MIC (single use), strain P9, EA=P. clypearia 10% ethanol extract): 8 µg/mL (≈ 14.6 µM) | MIC (Pseudomonas aeruginosa, read-out: MIC (single use), strain P9, EA=P. clypearia water extract): 8 µg/mL (≈ 14.6 µM) | MIC (Pseudomonas aeruginosa, read-out: MIC (single use), strain P10, EA=P. clypearia 10% ethanol extract): 4 µg/mL (≈ 7.32 µM) | MIC (Pseudomonas aeruginosa, read-out: MIC (single use), strain P10, EA=P. clypearia water extract): 4 µg/mL (≈ 7.32 µM) | MIC (Pseudomonas aeruginosa, read-out: MIC (single use), strain P11, EA=P. clypearia 10% ethanol extract): 2 µg/mL (≈ 3.66 µM) | MIC (Pseudomonas aeruginosa, read-out: MIC (single use), strain P11, EA=P. clypearia water extract): 2 µg/mL (≈ 3.66 µM) | MIC (Pseudomonas aeruginosa, read-out: MIC (single use), strain P12, EA=P. clypearia 10% ethanol extract): 64 µg/mL (≈ 117 µM) | MIC (Pseudomonas aeruginosa, read-out: MIC (single use), strain P12, EA=P. clypearia water extract): 64 µg/mL (≈ 117 µM) | MIC (Pseudomonas aeruginosa, read-out: MIC (single use), strain P13, EA=P. clypearia 10% ethanol extract): 16 µg/mL (≈ 29.3 µM) | MIC (Pseudomonas aeruginosa, read-out: MIC (single use), strain P13, EA=P. clypearia water extract): 16 µg/mL (≈ 29.3 µM) | MIC (Pseudomonas aeruginosa, read-out: MIC (single use), strain P14, EA=P. clypearia 10% ethanol extract): 16 µg/mL (≈ 29.3 µM) | MIC (Pseudomonas aeruginosa, read-out: MIC (single use), strain P14, EA=P. clypearia water extract): 16 µg/mL (≈ 29.3 µM) | MIC (Pseudomonas aeruginosa, read-out: MIC (single use), strain P15, EA=P. clypearia 10% ethanol extract): 256 µg/mL (≈ 468 µM) | MIC (Pseudomonas aeruginosa, read-out: MIC (single use), strain P15, EA=P. clypearia water extract): 256 µg/mL (≈ 468 µM) | MIC (Pseudomonas aeruginosa, read-out: MIC (single use), strain P16, EA=P. clypearia 10% ethanol extract): 32 µg/mL (≈ 58.5 µM) | MIC (Pseudomonas aeruginosa, read-out: MIC (single use), strain P16, EA=P. clypearia water extract): 32 µg/mL (≈ 58.5 µM) | MIC (Pseudomonas aeruginosa, read-out: MIC (single use), strain P17, EA=P. clypearia 10% ethanol extract): 32 µg/mL (≈ 58.5 µM) | MIC (Pseudomonas aeruginosa, read-out: MIC (single use), strain P17, EA=P. clypearia water extract): 32 µg/mL (≈ 58.5 µM) | MIC (Pseudomonas aeruginosa, read-out: MIC (single use), strain P18, EA=P. clypearia 10% ethanol extract): 64 µg/mL (≈ 117 µM) | MIC (Pseudomonas aeruginosa, read-out: MIC (single use), strain P18, EA=P. clypearia water extract): 64 µg/mL (≈ 117 µM) | MIC (Pseudomonas aeruginosa, read-out: MIC (single use), strain P19, EA=P. clypearia 10% ethanol extract): 4 µg/mL (≈ 7.32 µM) | MIC (Pseudomonas aeruginosa, read-out: MIC (single use), strain P19, EA=P. clypearia water extract): 4 µg/mL (≈ 7.32 µM) | MIC (Pseudomonas aeruginosa, read-out: MIC (single use), strain P20, EA=P. clypearia 10% ethanol extract): 256 µg/mL (≈ 468 µM) | MIC (Pseudomonas aeruginosa, read-out: MIC (single use), strain P20, EA=P. clypearia water extract): 256 µg/mL (≈ 468 µM) | MIC50 [5]: 32 µg/mL (≈ 58.5 µM) | MIC90 [5]: 256 µg/mL (≈ 468 µM) | MIC50 [6]: 32 µg/mL (≈ 58.5 µM) | MIC90 [6]: 256 µg/mL (≈ 468 µM) | MIC50 [7]: 32 µg/mL (≈ 58.5 µM) | MIC90 [7]: 256 µg/mL (≈ 468 µM)
